This is an account of results in ChEMBL document CHEMBL1201862, “PubChem BioAssay data set” (2004).

Test systems include SF-295; HCC 2998; A549; DMS-273; Malme-3M; TK-10; RXF 393; HL-60; NCI-H226; SK-MEL-5; KM12; HOP-92; OVCAR-8; HT-29; DMS-114; OVCAR-3; CAKI-1.
Assay in all cases: growth of human tumour cells (NCI), 48 h

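Test compounds were applied to cells in 96-well plates for 48 hours at 5 doses. GI50 is the concentration that inhibits growth by half.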 Activity calls are given as the source filed them. Rule as the data show it: active = GI50 up to about 1.1 µM and inactive = higher.

Regarding `CC(=O)Nc1ccc(/C=C/C(=O)c2sc(-n3nc(-c4ccccc4)cc3-c3ccccc3)nc2C)cc1`, the GI50 in the assay on SF-295, in the assay with HCC 2998, with A549, with DMS-273, in the assay on Malme-3M and in the assay with TK-10 was > 10 µM (inactive) in each case. Also, the GI50 in the assay with RXF 393 was > 10 µM (inactive); in the assay with HL-60, > 10 µM (inactive); with NCI-H226 it was > 10 µM (inactive); with SK-MEL-5 it was 95.3 µM (inactive); with KM12, 64.9 µM (inactive); in the assay with HOP-92, > 10 µM (inactive). Further, the GI50 with OVCAR-8 is > 10 µM (inactive); in the assay on HT-29, 84.7 µM (inactive); with DMS-114, 74.8 µM (inactive); in the assay on OVCAR-3, > 10 µM (inactive); in the assay with CAKI-1, > 10 µM (inactive).

Take `C=CCC12CC(=O)CCC1c1ccc(OC)cc1C2=O` (stereo unspecified): the GI50 in the assay with SF-295, in the assay with HCC 2998, in the assay on A549, with DMS-273, in the assay on Malme-3M and in the assay on TK-10 was > 100 µM (inactive) throughout. The GI50 with RXF 393, with HL-60, in the assay on NCI-H226, in the assay on SK-MEL-5, in the assay on KM12 and in the assay with HOP-92 was > 100 µM (inactive) each time. For the same compound, the GI50 with OVCAR-8, in the assay on HT-29, with DMS-114, in the assay with OVCAR-3 and in the assay with CAKI-1 was > 100 µM (inactive) in each case.

For `CCOC(=O)C1(Br)C(c2ccccc2)NC(=O)N(C2OC(COC(=O)c3ccccc3)C(OC(=O)c3ccccc3)C2OC(=O)c2ccccc2)C1(C)Br` (stereo unspecified), the GI50 with SF-295 was 33.3 µM (inactive); in the assay with HCC 2998, 91 µM (inactive); with A549 it was 12.9 µM (inactive); with DMS-273, 33.5 µM (inactive); with Malme-3M, 23.8 µM (inactive); in the assay with TK-10, 39.4 µM (inactive). Moreover, the GI50 is 14.5 µM (inactive) with RXF 393; 0.0565 µM (active) in the assay on HL-60; 15.2 µM (inactive) in the assay with SK-MEL-5; 21.6 µM (inactive) with KM12; 18.1 µM (inactive) in the assay on HOP-92; 17.3 µM (inactive) in the assay with OVCAR-8. The GI50 in the assay with HT-29 was 18.2 µM (inactive); in the assay on DMS-114, 18.3 µM (inactive); in the assay with OVCAR-3 it was 29.6 µM (inactive); in the assay on CAKI-1, 35.6 µM (inactive).

Consider `COc1nc(NC2OCC(O)C(O)C2O)c(NC2OCC(O)C(O)C2O)c(=O)n1C` (stereo unspecified), for which the GI50 in the assay with SF-295, in the assay with HCC 2998, in the assay with A549, in the assay with DMS-273, in the assay on Malme-3M and in the assay with TK-10 was > 100 µM (inactive) each time. Moreover, the GI50 in the assay on RXF 393 was > 100 µM (inactive); in the assay on HL-60 it was > 100 µM (inactive); with NCI-H226, 89.7 µM (inactive); in the assay on KM12 it was > 100 µM (inactive); in the assay with HOP-92 it was > 100 µM (inactive); in the assay with OVCAR-8, > 100 µM (inactive). The GI50 in the assay with HT-29, in the assay on DMS-114 and in the assay with OVCAR-3 was > 100 µM (inactive) throughout.

Consider `NC1CC(n2ccc(=O)[nH]c2=O)OC1C(O)CO` (stereo unspecified), for which the GI50 in the assay on SF-295, in the assay on HCC 2998, with A549, in the assay on DMS-273, with Malme-3M and in the assay with TK-10 was > 100 µM (inactive) in each case. For the same compound, the GI50 in the assay on RXF 393, with HL-60, in the assay on NCI-H226, in the assay on SK-MEL-5, with KM12 and in the assay with HOP-92 was > 100 µM (inactive) throughout. The GI50 in the assay on OVCAR-8, with HT-29, in the assay on DMS-114 and in the assay on OVCAR-3 was > 100 µM (inactive) each time.

For the compound `COC(=O)C(=O)C1CCCCC(C2=NC3NN=C(N)N3C2=O)C1=O` (stereo unspecified), the GI50 in the assay on SF-295, in the assay on HCC 2998, in the assay with A549, in the assay on DMS-273, in the assay on Malme-3M and with TK-10 was > 100 µM (inactive) each time. The GI50 is 63 µM (inactive) in the assay on RXF 393; > 100 µM (inactive) in the assay on HL-60; > 100 µM (inactive) with NCI-H226; > 100 µM (inactive) with SK-MEL-5; > 100 µM (inactive) in the assay with KM12; > 100 µM (inactive) in the assay with HOP-92. Moreover, the GI50 in the assay with OVCAR-8, with HT-29, with DMS-114, in the assay on OVCAR-3 and in the assay on CAKI-1 was > 100 µM (inactive) each time.

For `COc1cc(C)c(C)c(OC(=O)c2c(C)c(C)c(OC)c(C)c2OC)c1C`, the GI50 in the assay with SF-295 is 3.92 µM (inactive); in the assay with HCC 2998, 13.8 µM (inactive); in the assay with A549 it was 4.11 µM (inactive); in the assay with DMS-273 it was 3.94 µM (inactive); with Malme-3M, 6.9 µM (inactive); in the assay with TK-10, 25.6 µM (inactive). In addition, the GI50 was 13 µM (inactive) with RXF 393; 10 µM (inactive) in the assay on HL-60; 15.7 µM (inactive) in the assay on NCI-H226; 5.02 µM (inactive) in the assay on SK-MEL-5; 3.31 µM (inactive) in the assay with KM12; 7.19 µM (inactive) in the assay on HOP-92. Moreover, the GI50 in the assay on OVCAR-8 was 19.5 µM (inactive); with HT-29 it was 3.85 µM (inactive); in the assay on DMS-114, 3.29 µM (inactive); in the assay with OVCAR-3 it was 2.02 µM (inactive); with CAKI-1, 7.26 µM (inactive).

In the case of `Cc1c(Cl)ccc2c1NC(=O)C2(O)CC(=O)c1ccc(Cl)cc1` (stereo unspecified), the GI50 was 24.8 µM (inactive) with SF-295; > 42 µM (inactive) in the assay with HCC 2998; > 100 µM (inactive) in the assay with A549; 48.2 µM (inactive) in the assay with DMS-273; 37.8 µM (inactive) in the assay with Malme-3M; > 100 µM (inactive) with TK-10. In addition, the GI50 in the assay on RXF 393 is 31.2 µM (inactive); in the assay on HL-60 it was 28.6 µM (inactive); in the assay on NCI-H226, > 55.2 µM (inactive); with SK-MEL-5, 53.3 µM (inactive); in the assay on KM12 it was 51.2 µM (inactive); in the assay with HOP-92, 69.2 µM (inactive). Also, the GI50 in the assay on OVCAR-8 was 34.9 µM (inactive); with HT-29, 35 µM (inactive); with DMS-114, 11.7 µM (inactive); in the assay on OVCAR-3, 57.3 µM (inactive); in the assay on CAKI-1, > 71.9 µM (inactive).

`CCNC(=O)COc1ccc(Br)cc1Br`: the GI50 with SF-295, with HCC 2998, in the assay on A549, in the assay with DMS-273, in the assay with Malme-3M and with RXF 393 was > 100 µM (inactive) throughout. Also, the GI50 is > 100 µM (inactive) with HL-60; > 100 µM (inactive) with NCI-H226; 86.5 µM (inactive) with SK-MEL-5; > 100 µM (inactive) in the assay with KM12; 29 µM (inactive) in the assay on HOP-92; > 100 µM (inactive) with HT-29. Also, the GI50 in the assay on DMS-114, in the assay on OVCAR-3 and in the assay on CAKI-1 was > 100 µM (inactive) throughout.

Consider `Cc1ccc(NC(=O)CC(=O)N2N=C(N(CCC#N)c3cccc(C)c3)CC2c2ccccc2)cc1` (stereo unspecified), for which the GI50 in the assay on SF-295, with HCC 2998, in the assay with A549, in the assay with DMS-273, in the assay on Malme-3M and in the assay with RXF 393 was > 100 µM (inactive) throughout. Further, the GI50 in the assay on HL-60, in the assay with NCI-H226, with SK-MEL-5, with KM12, in the assay with HOP-92 and in the assay on OVCAR-8 was > 100 µM (inactive) in each case. The GI50 with HT-29, in the assay with DMS-114 and in the assay on OVCAR-3 was > 100 µM (inactive) in each case.

Take `C[C@]12CCC[C@H](Cl)C1(O)C[C@H](C(=O)O)CC2` (stereo partly specified): the GI50 with SF-295, with HCC 2998, in the assay with A549, in the assay on DMS-273, in the assay on Malme-3M and with TK-10 was > 100 µM (inactive) in each case. In addition, the GI50 in the assay with RXF 393, with HL-60, in the assay on NCI-H226, in the assay on SK-MEL-5, in the assay on KM12 and in the assay with HOP-92 was > 100 µM (inactive) throughout. In addition, the GI50 in the assay with OVCAR-8, in the assay with HT-29, with DMS-114, with OVCAR-3 and with CAKI-1 was > 100 µM (inactive) in each case.

In the case of `Nc1ccc(N)c2c1C(=O)c1c(N)ccc(N)c1C2=O`, the GI50 in the assay on SF-295 was 70 µM (inactive); in the assay on HCC 2998, 39.6 µM (inactive); with A549, 62.7 µM (inactive); in the assay on DMS-273 it was 39 µM (inactive); in the assay on Malme-3M it was > 100 µM (inactive); in the assay on TK-10, > 59.3 µM (inactive). For the same compound, the GI50 is 35 µM (inactive) with RXF 393; 45.6 µM (inactive) in the assay on HL-60; 14.6 µM (inactive) in the assay on NCI-H226; 37.8 µM (inactive) with SK-MEL-5; 60.8 µM (inactive) in the assay on KM12; 36.6 µM (inactive) in the assay with HOP-92. Further, the GI50 in the assay on OVCAR-8 was 58.9 µM (inactive); in the assay with HT-29, > 100 µM (inactive); in the assay on DMS-114 it was 30.6 µM (inactive); in the assay on OVCAR-3, 25.1 µM (inactive); in the assay with CAKI-1, 49.9 µM (inactive).
